From US10271539B2, “Assay-ready frozen cell and method for minimizing variability in the performance thereof” (LE CENTRE NATIONALE DE LA RECHERCHE SCIENTIFIQUE (CNRS), priority 2013, dated 2019)
Entries after “also recorded” stand apart in the source; their conditions may differ. Where a SMILES comes first, the peptide text is derived from it. [ ]: non-standard residue; d: D form. The star is where a group is joined. Sta = CC(C)C[C@H](N)[C@@H](O)CC(=O)O; Isovaleryl = CC(C)CC(=O)*; Cbz = O=C(OCc1ccccc1)*

How the values were obtained:
[1] = test system: KJL-2 cells; experiment: TNFα-induced firefly luciferase (FL) / Renilla luciferase (RL) reporter gene assay (DUAL-GLO) in vinblastin-treated, frozen and thawed KJL-2 cells; type: cell-based, human; settings: for FL/RL ratio: scavengers/chelators of reactive oxygen species, cells treated 10 minutes
Description: The X-axis is TNFα, ng/ml.
KJL-2 cells were used in all experiments (carried out to date). […] In order to reduce the formation of ice crystals and subsequent cell lysis, all experimental groups were frozen using the alcohol-free Biocison controlled freezing system that cools cells at approximately 1.0° C./minute.

[2] = test system: KJL-2 cells; experiment: Staurosporine-induced apoptosis: FL and RL activity in KJL-2 cells; type: cell-based, human; settings: 10 micromolar staurosporine, over 24 hours
Description: Briefly, untreated cells or cells treated with vinblastin as described in WO 2004/039990; US 2004/0235157 and U.S. Pat. No. 7,470,536 were treated for 10 minutes with substances that inhibit the formation of reactive oxygen species and/or scavengers of reactive oxygen species either alone or concomitantly with vinblastin treatment. The cells were then frozen using the cryopreservative medium described in WO 2004/039990; US 2004/0235157 and U.S. Pat. No. 7,470,536 with or without substances that inhibit the formation of reactive oxygen species and/or scavengers of reactive oxygen species. KJL-2 cells were used in all experiments (carried out to date). All groups were treated with vinblastin using the same procedure as described in WO 2004/039990; US 2004/0235157 and U.S. Pat. No. 7,470,536. In order to reduce the formation of ice crystals and subsequent cell lysis, all experimental groups were frozen using the alcohol-free Biocison controlled freezing system that cools cells at approximately 1.0° C./minute. All assays were performed using DUAL-GLO (Promega, Catalogue No 2920) that allows Firefly luciferase (FL) and Renilla luciferase (RL) activity to be determined sequentially in the same well of a microtiter plate.

[3] = pre-treatment of cells with proteasome inhibitor
[4] = substances that reduce H2O2 (COX inhibitors)
[5] = NAC both during treatment with vinblastin and in the cryopreservative medium
[6] = pre-treatment of cells with protease inhibitor and addition to the freezing medium

With NCCNCCNCCNCCN [tetra ethylenepentamine] the FL/RL ratio [1] was “without effect”.

For OC[C@@H](O)[C@@H](O)[C@H](O)[C@H](O)CO [Mannitol], the FL/RL ratio [1] was “without effect”.

With CC(C)C[C@@H](C=O)NC(=O)[C@H](CC(C)C)NC(=O)[C@H](CC(C)C)NC(=O)OCc1ccccc1 [MG-132] (Cbz-Leu-Leu-Leu-aldehyde) the FL activity [1, 3] was “did not increase FL activity significantly; also recorded: reduced FL activity”.

For CS(=O)(=O)c1ccc(C2=C(c3ccccc3)C(=O)OC2)cc1 [VIOXX, rofecoxib], the FL activity [1, 4] was “increased FL activity marginally”.

With CC(=O)N[C@@H](CSSC[C@H](N)C(=O)O)C(=O)O [N-acetylcystine] the “vial-to-vial variation in normalized RLU and normalized fold induction” value ([1]; 5 mM NAC, FIGS. 6A and 6B) was “superior to GSH treatment in reducing vial-to-vial variation”, the “lot-to-lot variation in the performance of assay-ready frozen cells” value [1, 5] was “markedly reducing” and the “vial-to-vial variation in the performance of assay-ready frozen cells” value [1, 5] was “markedly reducing”.

In the case of CN[C@@H]1C[C@H]2O[C@@](C)([C@@H]1OC)n1c3ccccc3c3c4c(c5c6ccccc6n2c5c31)C(=O)NC4 [staurosporine], the FL activity [2] is reported as “inhibits FL activity progressively” and the RL activity [2] is reported as “remains fairly constant”.

For O=S(=O)(O)c1cc(O)c(O)c(S(=O)(=O)O)c1 [Tiron], the FL/RL ratio [1] was “without effect”.

With Cl.N [ammonium chloride] the FL activity [1, 6] was “did not significantly increase FL activity”.

For O=S(=O)(F)Cc1ccccc1 [PMSF], the FL activity [1, 6] was “did not significantly increase FL activity”.

With CC(=O)Oc1ccccc1C(=O)O [Acetylsalicylic acid, acetylsalicylic acid] the FL activity [1, 4] was “increased FL activity marginally”.

CC(=O)N[C@@H](CSC(=O)[C@]1([C@@H](O)C(C)C)NC(=O)[C@H](C)[C@@H]1O)C(=O)O [lactacystin] was tested, and the FL activity [1, 3] was “did not increase FL activity significantly”.

Oc1ncnc2[nH]ncc12 [allopurinol] was tested, and the “FL values (RLU)” value ([1]; 100 μM allopurinol in cryopreservative, frozen one day or 5 days, vs control, FIGS. 1A and 1B) was “significantly increases FL values”, the “intra-vial (vial to vial) variation in normalized RLU and normalized fold induction” value ([1]; 100 μM allopurinol, relative to cells treated with vinblastin alone, FIGS. 3A-4B) was “reduced intra-vial variation” and the “form of the TNFα dose response curve” value ([1]; 100 μM allopurinol, TNFα of 10 ng/ml and higher, FIGS. 4A and 4B) was “some alteration of the form of the TNFα dose response curve”.

MNTMPyP was tested, and the FL/RL ratio [1] was “without effect”.

For CC1(C)CC(O)CC(C)(C)N1[O] [TEMPOL], the FL/RL ratio [1] was “without effect”.

N[C@@H](CCC(=O)N[C@@H](CS)C(=O)NCC(=O)O)C(=O)O [GSH, glutathione SH] was tested, and the “vial-to-vial variation in normalized RLU and normalized fold induction” value ([1]; 1 mM GSH, FIGS. 5A and 5B) was “appeared to be effective in reducing vial-to-vial variation” and the “vial-to-vial variation in normalized RLU and normalized fold induction” value ([1]; 1 mM GSH, FIGS. 5A and 5B, listed as glutathione SH) was “higher degree of variability in FL readings”.

In the case of CC[C@H](C)[C@H](NC(=O)[C@H]([C@@H](C)CC)N(C)C(C)=O)C(=O)N[C@H](C(=O)N[C@@H](CC(C)C)C(=O)[C@@]1(C)CO1)[C@@H](C)O [epoxomicin], the FL activity [1, 3] is reported as “did not increase FL activity significantly”.

CC(C)CC(=O)N[C@H](C(=O)N[C@H](C(=O)N[C@@H](CC(C)C)[C@@H](O)CC(=O)N[C@@H](C)C(=O)N[C@@H](CC(C)C)[C@@H](O)CC(=O)O)C(C)C)C(C)C [Pepstatin A] (Isovaleryl-VV[Sta]A[Sta]-OH) was tested, and the FL activity [1, 6] was “did not significantly increase FL activity”.
